This is an account of results in patent US20140061616A1, “ORGANIC SEMICONDUCTOR MATERIAL, COATING LIQUID CONTAINING THE MATERIAL, AND ORGANIC THIN FILM TRANSISTOR” (IDEMITSU KOSAN CO., LTD., priority 2010, published 2014).

Series [1] in a line: Evaluation of solubility: temperature of toluene required to dissolve the compound at 0.4 mass %. The series is classed as physicochemical. Particulars: concentration of 0.4 mass %.
Series [2] is described as follows: Storage stability of organic semiconductor material: carrier mobility after storage in air. The series is classed as physicochemical. Particulars: deposited transistor stored for 9 days in air. The protocol:
An organic thin film transistor was obtained in the same manner as in Example 17, except that pentacene (see the following formula) was used as the material for forming the organic semiconductor layer instead of the compound (A-3).
The field-effect mobility μ of holes in the organic thin film transistor was calculated in the same manner as in Example 17, and found to be […]. The carrier mobility calculated after storing the organic thin film transistor for 9 days in air was […].

Molecules are shown by their SMILES.

Regarding `CCCCCCCCCCCCc1ccc2c(c1)sc1c2ccc2c1ccc1c3ccc(CCCCCCCCCCCC)cc3sc12` [Comparative compound (1)], the “Dissolution temperature (° C.) in toluene” value (“Dissolution temperature” below) in series [1] was 90 °C. `c1ccc2c(c1)sc1c2ccc2c1ccc1c3ccccc3sc12` [Comparative compound (2)]: the figures for the “Dissolution temperature” value in series [1] and in series [1] (listed as comparative compound (2)) were “Insoluble” and “not sufficiently dissolved”, respectively. Take `CCCCCc1ccc2c(c1)sc1c2ccc2c1ccc1c3ccc(CCCCC)cc3sc12` [Compound A-3]: in series [2], the “carrier mobility after storage” value is recorded as 1.1 cm^2/Vs and the “deterioration in carrier mobility on storage” value was “a deterioration in carrier mobility was not observed”. Further, in series [1], the “Dissolution temperature” value was found to be 80 °C. As to `c1ccc2cc3cc4cc5ccccc5cc4cc3cc2c1` [pentacene], the “carrier mobility after storage” value in series [2] was 1.3×10^3 cm^2/Vs.
